Converted amounts (≈) assume the structure as drawn. Where two headings read alike, the source gives them in different places. Numbered stars: 1 amine (or outer) side, 2 acyl side, 3 side chain; on linkers, the order of the positions; unused ones are H or OH. Bridge positions count the residues as written; N and C are the ends. Square brackets hold non-standard residues; d marks the D form. Peptide text beside a SMILES is read from it. 3Aminoazetidine3carboxyl = O=C(C1(N[*:1])CN([*:3])C1)[*:2]; dαMeOrn(Me) = CN(CCC[C@@](C)(N[*:1])C(=O)[*:2])[*:3]; dαMeDab(Me) = CN(CC[C@@](C)(N[*:1])C(=O)[*:2])[*:3]; αMeDab(Me) = CN(CC[C@](C)(N[*:1])C(=O)[*:2])[*:3]; X8 = CN(CC=[*:3])CCC[C@](C)(N[*:1])C(=O)[*:2]; X3 = O=C([C@@]1(N[*:1])CCN([*:3])C1)[*:2]; X7 = C[C@](CCCCC=[*:3])(N[*:1])C(=O)[*:2]; X1 = O=C([C@]1(N[*:1])CCN([*:3])C1)[*:2]; X2 = O=C(OCC=CCOC(=O)[*:2])[*:1]; R5 = C=CCCC[C@@](C)(N)C(=O)O; Aib = CC(C)(N)C(=O)O
Experiments:
[1] = Solubility in DPBS (A280 of supernatant); type: physicochemical; conditions: DPBS
Method: Suitable assays for assessing solubility are widely known in the art and can be utilized in accordance with the present disclosure. In some embodiments, in an exemplary protocol, dried peptide was reconstituted in DPBS (DPBS, 1×, cell culture grade, Sigma D8537) in triplicate, vortexed, sonicated and then centrifuged. Absorbance of the supernatant was measured at A280 (Nanodrop 2000) and the concentration was determined using the extinction coefficient for tryptophan. Exemplary solubility data are presented in, e.g., Table 2.

[2] = biological target: T1, full-length beta-catenin (Axin site) (Homo sapiens, UniProt P35222); test: Competition fluorescence polarization assay (Axin site probe); type: binding; conditions: competition fluorescence polarization, Table 2; read-out: in vitro FP EC50
T1 construct: 15 nM full-length beta-catenin, 20 nM FITC labeled peptide in buffer
T1 sequence (P35222 1-781): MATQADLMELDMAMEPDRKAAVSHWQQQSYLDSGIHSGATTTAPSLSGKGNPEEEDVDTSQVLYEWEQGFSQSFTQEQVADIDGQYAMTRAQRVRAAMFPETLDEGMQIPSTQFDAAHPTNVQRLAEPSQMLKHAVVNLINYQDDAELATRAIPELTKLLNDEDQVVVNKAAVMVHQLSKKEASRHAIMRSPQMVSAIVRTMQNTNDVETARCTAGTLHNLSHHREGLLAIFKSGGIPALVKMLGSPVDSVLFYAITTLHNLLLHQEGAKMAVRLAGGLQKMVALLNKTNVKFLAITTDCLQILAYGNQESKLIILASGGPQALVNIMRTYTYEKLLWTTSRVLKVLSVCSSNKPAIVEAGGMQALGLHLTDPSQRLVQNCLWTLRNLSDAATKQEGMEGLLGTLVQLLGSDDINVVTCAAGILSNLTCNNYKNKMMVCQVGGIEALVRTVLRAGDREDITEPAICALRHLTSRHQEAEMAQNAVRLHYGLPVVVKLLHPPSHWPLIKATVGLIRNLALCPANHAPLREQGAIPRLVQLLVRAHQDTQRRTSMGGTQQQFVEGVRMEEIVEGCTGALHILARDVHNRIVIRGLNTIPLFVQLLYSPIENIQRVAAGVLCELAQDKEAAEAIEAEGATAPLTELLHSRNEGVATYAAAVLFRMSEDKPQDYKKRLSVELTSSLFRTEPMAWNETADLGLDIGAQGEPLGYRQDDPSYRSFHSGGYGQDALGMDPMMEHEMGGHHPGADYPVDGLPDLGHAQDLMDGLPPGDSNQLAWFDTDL
How it was run: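 Competition FP: 15 nM full-length β-catenin pre-incubated 5 min with 20 nM FITC-labelled stapled Axin-site peptide, then titrated peptide added (3-fold series from 5 μM) for 15 min in the dark. Buffer 50 mM Tris pH 8.0, 250 mM NaCl, 2% glycerol, 0.5 mM EDTA; duplicate reads.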

[3] = Table 3 Part B, amino-stapled product, read-out: Solubility in DPBS
[4] = Table 3 Part A, read-out: Solubility in DPBS

SMILES | solubility ([1]; Table 2, read-out: Solubility) | solubility [1, 3] | EC50 [2] | solubility [1, 4] | solubility thermodynamic [1, 4]
CC[C@H](C)[C@@H]1NC(=O)[C@H](Cc2c[nH]cn2)NC(=O)[C@H](C)NC(=O)[C@H](CC(=O)O)NC(=O)[C@H](CC(C)C)NC(=O)[C@H]([C@@H](C)CC)NC(=O)[C@](C)(NC(=O)[C@H](C)NC(C)=O)CCCC=CCN(C)CCC[C@@](C)(C(=O)N[C@@H](CCCNC(=N)N)C(=O)N[C@H](C(=O)N[C@@H](Cc2c[nH]c3ccccc23)C(N)=O)C(C)C)NC1=O [FP0510a, Ac-A-R5-I-L-D-A-H-I-MH-R-V-W-NH2] (Ac-A[R5]ILDAHI[X8]RVW-NH2; staple 2-9) | 165 µM (≈ 252 µg/mL) | 165 µM (≈ 252 µg/mL) | 500 to 5000 nM |  | 
CC[C@H](C)[C@@H]1NC(=O)[C@H](Cc2c[nH]cn2)NC(=O)[C@H](C)NC(=O)[C@H](CC(=O)O)NC(=O)[C@H](CC(C)C)NC(=O)[C@H]([C@@H](C)CC)NC(=O)[C@](C)(NC(=O)[C@H](C)NC(C)=O)CCN(C)C(=O)OCC=CCOC(=O)N(C)CC[C@@](C)(C(=O)N[C@@H](CCCNC(=N)N)C(=O)N[C@H](C(=O)N[C@@H](Cc2c[nH]c3ccccc23)C(N)=O)C(C)C)NC1=O [FP0594c, Ac-A-MG-I-L-D-A-H-I-MF-R-V-W-NH2] (Ac-A[dαMeDab(Me)]ILDAHI[αMeDab(Me)]RVW-NH2; linker 2-9 via X2) | 166 µM (≈ 271 µg/mL) |  | 100 to 500 nM | 166 µM (≈ 271 µg/mL) | 
CC[C@H](C)[C@@H]1NC(=O)[C@H](Cc2c[nH]cn2)NC(=O)[C@H](C)NC(=O)[C@H](CC(=O)O)NC(=O)[C@H](CC(C)C)NC(=O)[C@H]([C@@H](C)CC)NC(=O)[C@@](C)(NC(=O)[C@H](C)NC(C)=O)CCN(C)C(=O)OCC=CCOC(=O)N2CC[C@@](C(=O)N[C@@H](CCCNC(=N)N)C(=O)N[C@H](C(=O)N[C@@H](Cc3c[nH]c4ccccc34)C(N)=O)C(C)C)(C2)NC1=O [FP0626c, Ac-A-MF-I-L-D-A-H-I-MB-R-V-W-NH2] (Ac-A[αMeDab(Me)]ILDAHI[X1]RVW-NH2; linker 2-9 via X2) | 40 µM (≈ 64.6 µg/mL) |  | < 100 nM | 40 µM (≈ 64.6 µg/mL) | 
CC[C@H](C)[C@H](NC(=O)[C@H](Cc1c[nH]cn1)NC(=O)[C@H](C)NC(=O)[C@H](CC(=O)O)NC(=O)[C@H](CC(C)C)NC(=O)[C@@H](NC(=O)C(C)(C)NC(=O)[C@H](C)NC(C)=O)[C@@H](C)CC)C(=O)NC(C)(C)C(=O)N[C@@H](CCCNC(=N)N)C(=O)N[C@H](C(=O)N[C@@H](Cc1c[nH]c2ccccc12)C(N)=O)C(C)C [FP0628_aib, Ac-A-Aib-I-L-D-A-H-I-Aib-R-V-W-NH2] (Ac-A[Aib]ILDAHI[Aib]RVW-NH2) | 88 µM (≈ 124 µg/mL) |  | 100 to 500 nM |  | 
CC[C@H](C)[C@@H]1NC(=O)[C@H](Cc2c[nH]cn2)NC(=O)[C@H](C)NC(=O)[C@H](CC(=O)O)NC(=O)[C@H](CC(C)C)NC(=O)[C@H]([C@@H](C)CC)NC(=O)[C@](C)(NC(=O)[C@H](C)NC(C)=O)CCCCCCC=CCOC(=O)N2CC[C@@](C(=O)N[C@@H](CCCNC(=N)N)C(=O)N[C@](C)(C(=O)N[C@@H](Cc3c[nH]c4ccccc34)C(N)=O)C(C)C)(C2)NC1=O [FP0632c, Ac-A-R8-I-L-D-A-H-I-MB-R-aMeV-W-NH2] | 13 µM (≈ 20.8 µg/mL) |  | 100 to 500 nM |  | 

Continued, values first:

solubility ([1]; Table 2, read-out: Solubility) | solubility [1, 3] | EC50 [2] | solubility [1, 4] | solubility thermodynamic [1, 4] | SMILES
170 µM (≈ 262 µg/mL) | 170 µM (≈ 262 µg/mL) | < 100 nM |  |  | CC[C@H](C)[C@@H]1NC(=O)[C@H](Cc2c[nH]cn2)NC(=O)[C@H](C)NC(=O)[C@H](CC(=O)O)NC(=O)[C@H](CC(C)C)NC(=O)[C@H]([C@@H](C)CC)NC(=O)[C@](C)(NC(=O)[C@H](C)NC(C)=O)CCCCC=CCN(C)CCC[C@@](C)(C(=O)N[C@@H](CCCNC(=N)N)C(=O)N[C@H](C(=O)N[C@@H](Cc2c[nH]c3ccccc23)C(N)=O)C(C)C)NC1=O [FP0511a, Ac-A-R6-I-L-D-A-H-I-MH-R-V-W-NH2] (Ac-A[X7]ILDAHI[X8]RVW-NH2; staple 2-9)
133 µM (≈ 219 µg/mL) |  | < 100 nM | 133 µM (≈ 219 µg/mL) |  | CC[C@H](C)[C@@H]1NC(=O)[C@H](Cc2c[nH]cn2)NC(=O)[C@H](C)NC(=O)[C@H](CC(=O)O)NC(=O)[C@H](CC(C)C)NC(=O)[C@H]([C@@H](C)CC)NC(=O)[C@](C)(NC(=O)[C@H](C)NC(C)=O)CCCN(C)C(=O)OCC=CCOC(=O)N(C)CC[C@](C)(C(=O)N[C@@H](CCCNC(=N)N)C(=O)N[C@H](C(=O)N[C@@H](Cc2c[nH]c3ccccc23)C(N)=O)C(C)C)NC1=O [FP0588c, Ac-A-MI-I-L-D-A-H-I-MG-R-V-W-NH2] (Ac-A[dαMeOrn(Me)]ILDAHI[dαMeDab(Me)]RVW-NH2; linker 2-9 via X2)
 |  | < 100 nM |  | 91 µM (≈ 147 µg/mL) | CC[C@H](C)[C@@H]1NC(=O)[C@H](Cc2c[nH]cn2)NC(=O)[C@H](C)NC(=O)[C@H](CC(=O)O)NC(=O)[C@H](CC(C)C)NC(=O)[C@H]([C@@H](C)CC)NC(=O)[C@](C)(NC(=O)[C@H](C)NC(C)=O)CCN(C)C(=O)OCC=CCOC(=O)N2CC[C@](C(=O)N[C@@H](CCCNC(=N)N)C(=O)N[C@H](C(=O)N[C@@H](Cc3c[nH]c4ccccc34)C(N)=O)C(C)C)(C2)NC1=O [FP0598c, Ac-A-MG-I-L-D-A-H-I-MC-R-V-W-NH2] (Ac-A[dαMeDab(Me)]ILDAHI[X3]RVW-NH2; linker 2-9 via X2)
56 µM (≈ 88.7 µg/mL) |  | < 100 nM | 56 µM (≈ 88.7 µg/mL) |  | CC[C@H](C)[C@@H]1NC(=O)[C@H](Cc2c[nH]cn2)NC(=O)[C@H](C)NC(=O)[C@H](CC(=O)O)NC(=O)[C@H](CC(C)C)NC(=O)[C@H]([C@@H](C)CC)NC(=O)C2(NC(=O)[C@H](C)NC(C)=O)CN(C2)C(=O)OCC=CCOC(=O)N2CC[C@](C(=O)N[C@@H](CCCNC(=N)N)C(=O)N[C@H](C(=O)N[C@@H](Cc3c[nH]c4ccccc34)C(N)=O)C(C)C)(C2)NC1=O [FP0616c, Ac-A-MA-I-L-D-A-H-I-MC-R-V-W-NH2] (Ac-A[3Aminoazetidine3carboxyl]ILDAHI[X3]RVW-NH2; linker 2-9 via X2)
63 µM (≈ 99.8 µg/mL) |  | < 100 nM | 63 µM (≈ 99.8 µg/mL) |  | CC[C@H](C)[C@@H]1NC(=O)[C@H](Cc2c[nH]cn2)NC(=O)[C@H](C)NC(=O)[C@H](CC(=O)O)NC(=O)[C@H](CC(C)C)NC(=O)[C@H]([C@@H](C)CC)NC(=O)C2(NC(=O)[C@H](C)NC(C)=O)CN(C2)C(=O)OCC=CCOC(=O)N2CC[C@@](C(=O)N[C@@H](CCCNC(=N)N)C(=O)N[C@H](C(=O)N[C@@H](Cc3c[nH]c4ccccc34)C(N)=O)C(C)C)(C2)NC1=O [FP0617c, Ac-A-MA-I-L-D-A-H-I-MB-R-V-W-NH2] (Ac-A[3Aminoazetidine3carboxyl]ILDAHI[X1]RVW-NH2; linker 2-9 via X2)
